Test results taken from patent publication US20230174571A1, “METHOD OF TREATING SHIP1-MEDIATED DISEASES USING PELOROL DERIVATIVES” (Zebrapeutics Inc., priority 2020, published 2023).

Tests used:
[1] = biological target: T1, Clover-SHIP1 and mRuby2-STAT3 (Mus musculus, UniProt Q9ES52); assay: Acceptor photobleaching FRET analysis; format: cell-based; conditions: J17 SHIP1−/− cells expressing Clover-SHIP1/mRuby2-STAT3; 1 minute; 100 ng/ml IL10, IL6 or 20 μM I-2
T1 construct: expressed in transfected cells; host or cells: J17 (SHIP1-/- mouse macrophage line), lentiviral transduction
T1 sequence (Q9ES52 whole entry): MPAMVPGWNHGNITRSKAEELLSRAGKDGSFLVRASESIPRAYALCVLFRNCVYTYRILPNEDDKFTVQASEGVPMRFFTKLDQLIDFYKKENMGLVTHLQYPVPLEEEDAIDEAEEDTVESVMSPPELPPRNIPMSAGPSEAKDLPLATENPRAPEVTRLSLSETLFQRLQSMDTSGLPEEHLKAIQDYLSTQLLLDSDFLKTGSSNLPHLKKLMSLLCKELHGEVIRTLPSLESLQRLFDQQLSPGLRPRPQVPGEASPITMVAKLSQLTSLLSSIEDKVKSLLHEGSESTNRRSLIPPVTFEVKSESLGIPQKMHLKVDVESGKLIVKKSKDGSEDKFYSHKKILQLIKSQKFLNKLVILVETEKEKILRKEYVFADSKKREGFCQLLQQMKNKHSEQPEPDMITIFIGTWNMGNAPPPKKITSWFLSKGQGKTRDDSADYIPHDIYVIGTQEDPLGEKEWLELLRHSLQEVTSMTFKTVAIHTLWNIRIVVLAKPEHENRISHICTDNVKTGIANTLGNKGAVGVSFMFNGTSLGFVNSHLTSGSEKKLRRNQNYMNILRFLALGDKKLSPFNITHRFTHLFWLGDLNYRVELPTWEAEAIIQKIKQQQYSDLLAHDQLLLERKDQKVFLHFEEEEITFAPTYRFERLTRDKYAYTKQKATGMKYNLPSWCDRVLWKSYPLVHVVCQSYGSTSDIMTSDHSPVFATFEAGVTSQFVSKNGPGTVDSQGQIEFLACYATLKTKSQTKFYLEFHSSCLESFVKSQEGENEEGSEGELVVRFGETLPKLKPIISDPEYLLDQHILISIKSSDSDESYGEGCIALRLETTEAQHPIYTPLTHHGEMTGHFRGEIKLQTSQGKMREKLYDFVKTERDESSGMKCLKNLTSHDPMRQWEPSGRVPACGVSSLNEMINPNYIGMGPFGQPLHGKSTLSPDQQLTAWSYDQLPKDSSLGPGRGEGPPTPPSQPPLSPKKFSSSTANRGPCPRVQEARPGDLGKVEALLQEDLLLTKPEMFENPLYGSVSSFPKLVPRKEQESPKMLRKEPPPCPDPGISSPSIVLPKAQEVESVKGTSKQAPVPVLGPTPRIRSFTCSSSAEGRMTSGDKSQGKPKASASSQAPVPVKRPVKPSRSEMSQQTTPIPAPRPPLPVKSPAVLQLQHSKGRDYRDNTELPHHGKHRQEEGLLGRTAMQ
T1 sequence (P42227 whole entry partner): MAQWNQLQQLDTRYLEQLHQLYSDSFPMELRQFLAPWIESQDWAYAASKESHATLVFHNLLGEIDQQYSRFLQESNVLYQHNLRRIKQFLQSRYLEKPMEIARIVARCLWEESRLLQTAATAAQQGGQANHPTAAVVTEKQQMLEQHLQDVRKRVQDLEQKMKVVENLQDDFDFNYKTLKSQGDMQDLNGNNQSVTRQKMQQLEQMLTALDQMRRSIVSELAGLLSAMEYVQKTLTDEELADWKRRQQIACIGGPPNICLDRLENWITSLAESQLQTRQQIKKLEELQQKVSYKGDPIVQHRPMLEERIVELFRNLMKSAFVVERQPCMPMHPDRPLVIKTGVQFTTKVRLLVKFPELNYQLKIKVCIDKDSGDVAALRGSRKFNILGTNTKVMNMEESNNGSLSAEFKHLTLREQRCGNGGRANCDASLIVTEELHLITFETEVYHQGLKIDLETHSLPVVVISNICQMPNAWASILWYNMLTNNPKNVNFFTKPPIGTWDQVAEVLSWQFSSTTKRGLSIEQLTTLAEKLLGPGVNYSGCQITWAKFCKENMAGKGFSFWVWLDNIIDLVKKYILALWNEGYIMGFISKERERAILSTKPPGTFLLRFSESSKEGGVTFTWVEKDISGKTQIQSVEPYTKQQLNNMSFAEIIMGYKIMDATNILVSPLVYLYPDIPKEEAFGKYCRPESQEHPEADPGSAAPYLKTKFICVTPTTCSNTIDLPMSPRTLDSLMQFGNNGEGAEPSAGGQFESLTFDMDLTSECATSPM
Description: Acceptor Photobleaching FRET analysis. J17 cells expressing Clover-SHIP1 and/or mRuby2-STAT3 were seeded at 50×10^4 cells per well in 8-well Ibidi p-Slides (Ibidi GmbH, Martinsried, Germany). After overnight incubation, cells were serum-starved with Mac media containing 1% serum for 3 hours before media replacement with Leibovitz's (L-15) media (Invitrogen, Burlington, ON) supplemented with 1% serum, 10 μM β-mercaptoethanol, 150 μM monothioglycolate and 1 mM L-glutamine for confocal microscopy imaging. Cells were imaged on a Leica SP8X on DMi8 confocal microscope system with a 63×/1.3 Gly HC PL APO CS2 objective using a white light laser line with 488 nm for donor excitement and 555 nm for acceptor excitement. Photobleaching FRET analysis was performed by measuring Clover-SHIP1 donor fluorescence intensity before and after bleaching the acceptor, mRuby2-STAT3, within a field of cells ‘region of interest’ (ROI), at 100% laser intensity for 60 frames. Acceptor photobleaching was performed first in resting cells then at 1 minute (±5 seconds) following ‘mock’ stimulation with L-15 media, or L-15 media containing 100 ng/ml IL10, IL6 or 20 μM compound I-2. Donor and acceptor fluorescence intensity of individual cells within the bleached ROI was quantified before and after bleaching. Percentage FRET efficiency was calculated as % FRETeff=100×(Dpost−Dpre)/Dpost where Dpre and Dpost represent Clover-SHIP1 donor fluorescence intensity before and after bleaching, respectively.

[2] = tested on: LPS-induced TNFα; assay: Mouse endotoxemia model: serum TNFα after i.p. LPS; format: in vivo; conditions: 1 h
Description: Mouse Endotoxemia Model. Groups of 6-8 week old BALB/c SHIP1+/+ and SHIP1−/−mice were intraperitoneally injected with either 1 or 5 mg/kg of LPS with or without co-administration of 1 mg/kg of IL10. Blood was drawn 1 hour later by cardiac puncture for determination of plasma cytokine levels by ELISA. ELISA kits were purchased from BD Biosciences (Mississauga, ON) for TNFα.
A role for STAT3 in mediating IL10 inhibition of TNFα in vivo was first described by Takeda et al (Takeda et al., 1999). […] This implies that a protein other than STAT3 might contribute to IL10 action. […] Presently, the ability of IL10 to inhibit LPS-induced inflammatory cytokine/chemokine expression in vivo is shown (FIG. 1A) in SHIP1^+/+ and SHIP1^−/− mice, and found IL10 inhibited TNFα in SHIP1^+/+ but not SHIP1^−/− mice. It was previously shown that SHIP1 phosphatase activity is allosterically stimulated by its product PI(3,4)P2 (Ong et al., 2007). […] Presently, it is shown that compound I-1 inhibits LPS-induced TNFα in SHIP1^+/+ but not SHIP1^−/− mice, showing that these compounds can mimic anti-inflammatory properties of IL10 and is indeed specific for SHIP1 (FIG. 1B).
Data represent means of *p<0.05, **p<0.01 when compared with LPS-alone-stimulated mice, ns=not significant. […] Fractions were collected every 5 min for measurement of TNFα levels Data are representative of two independent experiments.

Compound	Clover-mRuby2 FRET signal [1]	LPS-induced TNFα (serum) ([2]; SHIP1+/+ mice)	LPS-induced TNFα (serum) ([2]; SHIP1−/− mice)
CC12CCC3C(C)(C)C(N)CCC3(C)C1Cc1cc(O)cc(O)c12 (stereo not drawn) [Compound I-2]	increases		
Cc1cc(O)cc2c1C1(C)CCC3C(C)(C)CCCC3(C)C1C2 (stereo not drawn) [Compound I-1]		inhibits	not
IL10: anti-inflammatory cytokine interleukin-10	increases	inhibited	not
